Legend:
[1] = UV absorption (absorption maximum and specific absorbance E 1/1); assay type: physicochemical; details: for λmax: UV absorption maximum; for E^1/1: specific absorbance at λmax
[2] = Standardized method for determining photostability (sun test); assay type: physicochemical; details: 5% strength by weight alcoholic solution on glass plate, 40° C.; for Photostability 30 min: 30 min irradiation; for Photostability 2 h: 2 h irradiation
Description: Standardized Method for Determining Photostability (Sun Test)
A 5% strength by weight alcoholic solution of the light protection agent to be tested is applied, using an Eppendorf pipette (20 μl), to the milled area of a small glass plate. Owing to the presence of the alcohol, the solution distributes uniformly on the roughened surface of the glass. The amount applied corresponds to the amount of light protection agent required to achieve an average sun protection factor in suncreams. In the test, four small glass plates are irradiated in each case. […] The small glass plates are cooled slightly during irradiation using a water cooling system located at the base of the sun test apparatus. The temperature inside the sun test apparatus is 40° C. during irradiation. After the samples have been irradiated, they are washed with ethanol in a dark 50 ml graduated flask and measured using a photometer. The blank samples are likewise applied to small glass plates and evaporated at room temperature for 30 minutes. Like the other samples, they are washed off with ethanol and diluted to 100 ml and measured.

[3] = used alone or in combination with UV-B filters; cited from earlier work

SMILES	λmax [1] [nm]	E^1/1 [1]	Photostability 30 min [2]	Photostability 2 h [2]	photochemical stability [3]
CC(=C(C#N)C#N)c1ccc2c(c1)C(C)(C)CCC2 [Example 1]	346	694	96%	90%	–
CCOC(=O)C(=Cc1ccc2c(c1)C(C)(C)CCO2)C(=O)OCC [Example 2]	320	616	100%	95%	–
CCOC(=O)C(=Cc1cc2c(cc1C)C(C)(C)CCC2(C)C)C(=O)OCC [Example 7]	294	594	99%	95%	–
CCOC(=O)C(=Cc1cc2c(cc1OC)C(C)(C)CCC2(C)C)C(=O)OCC [Example 8]	–	–	100/100%	100/100%	–
COc1ccc(C(=O)CC(=O)c2ccc(C(C)(C)C)cc2)cc1 [PARSOL 1789, 4-(1,1-dimethylethyl)-4′-methoxydibenzoylmethane]	–	–	–	–	does not have sufficient photochemical stability

The next lines start with results.

λmax [1] [nm]	E^1/1 [1]	Photostability 30 min [2]	Photostability 2 h [2]	SMILES	photochemical stability [3]
330	801	97%	84%	CC(=O)C(=Cc1ccc2c(c1)C(C)(C)CCO2)C(C)=O [Example 3]	–
336	700	95%	83%	Cc1cc2c(cc1C=C(C#N)C#N)C(C)(C)CCC2(C)C [Example 4]	–
330	601	86%	83%	CC(C)(C)C(=O)/C(C#N)=C/c1ccc2c(c1)C(C)(C)CCC2(C)C [Example 5]	–
294	411	100%	99%	CCOC(=O)C(=Cc1ccc2c(c1)C(C)(C)CCC2(C)C)C(=O)OCC [Example 6]	–
